ChEMBL document CHEMBL3885861, “Open TG-GATES”

Species on record: Rattus norvegicus
Test: Open TG-GATES - Regimen: Daily Repeat
Format: toxicity, organism-based, Sprague-Dawley
Set-up: regimen Daily Repeat, gender Male, age 6 weeks
Conditions: in vivo, po, 300 mg/kg, […], route gavage, dose level High; for KIDNEY_L / KIDNEY_R / KIDNEY_TOTAL: tissue Kidney; for LIVER: tissue Liver; for A/G / ALP / ALT / AST / BUN / CRE / Ca / Cl / DBIL / GLC / IP / K / LDH / Na / PL / RALB / TBIL / TC / TG / TP / gamma-GTP: tissue Plasma

SMILES: CCc1oc2ccccc2c1C(=O)c1cc(I)c(O)c(I)c1 [BENZIODARONE]
- Lym (tissue Blood, time 28 day): 78.6%
- MCH (tissue Blood, time 28 day): 19.6 pg
- MCHC (tissue Blood, time 28 day): 33.9%
- MCV (tissue Blood, time 28 day): 57.8 fL
- Mono (tissue Blood, time 28 day): 7.4%
- Neu (tissue Blood, time 28 day): 12.2%
- PT (tissue Blood, time 28 day): 12.3 s
- Plat (tissue Blood, time 28 day): 108.9 x10_4/uL
- RBC (tissue Blood, time 28 day): 768.2 x10_4/ul
- Ret (tissue Blood, time 28 day): 2.8%
- WBC (tissue Blood, time 28 day): 122.3 x10_2/uL
- KIDNEY_L (time 7 day): 1.2 g
- KIDNEY_R (time 7 day): 1.2 g
- KIDNEY_TOTAL (time 7 day): 2.4 g
- KIDNEY_L (time 14 day): 1.2 g
- KIDNEY_R (time 14 day): 1.3 g
- KIDNEY_TOTAL (time 14 day): 2.5 g
- KIDNEY_L (time 28 day): 1.4 g
- KIDNEY_R (time 28 day): 1.4 g
- KIDNEY_TOTAL (time 28 day): 2.8 g
- LIVER (time 7 day): 17.5 g
- LIVER (time 14 day): 19.2 g
- LIVER (time 28 day): 21.4 g
- A/G (time 7 day): 2
- ALP (time 7 day): 932.2 IU/L
- ALT (time 7 day): 35 IU/L
- AST (time 7 day): 59.4 IU/L
- BUN (time 7 day): 19.2 mg/dL
- CRE (time 7 day): 0.6 mg/dL
- Ca (time 7 day): 10.9 mg/dL
- Cl (time 7 day): 104 meq/L
- DBIL (time 7 day): 0.03 mg/dL
- GLC (time 7 day): 190.8 mg/dL
- IP (time 7 day): 8 mg/dL
- K (time 7 day): 4.1 meq/L
- LDH (time 7 day): 99 IU/L
- Na (time 7 day): 140 meq/L
- PL (time 7 day): 133.2 mg/dL
- RALB (time 7 day): 3.9 g/dL
- TBIL (time 7 day): 0.2 mg/dL
- TC (time 7 day): 72.8 mg/dL
- TG (time 7 day): 47 mg/dL
- TP (time 7 day): 5.9 g/dL
- gamma-GTP (time 7 day): 1.6 IU/L
- A/G (time 14 day): 1.7
- ALP (time 14 day): 877 IU/L
- ALT (time 14 day): 36 IU/L
- AST (time 14 day): 63.2 IU/L
- BUN (time 14 day): 21.4 mg/dL
- CRE (time 14 day): 0.6 mg/dL
- Ca (time 14 day): 10.6 mg/dL
- Cl (time 14 day): 104.4 meq/L
- DBIL (time 14 day): 0.038 mg/dL
- GLC (time 14 day): 195.8 mg/dL
- IP (time 14 day): 6.7 mg/dL
- K (time 14 day): 4.1 meq/L
- LDH (time 14 day): 95.8 IU/L
- Na (time 14 day): 141.4 meq/L
- PL (time 14 day): 123.2 mg/dL
- RALB (time 14 day): 3.9 g/dL
- TBIL (time 14 day): 0.2 mg/dL
- TC (time 14 day): 64.2 mg/dL
- TG (time 14 day): 48.2 mg/dL
- TP (time 14 day): 6.2 g/dL
- gamma-GTP (time 14 day): 1.6 IU/L
- A/G (time 28 day): 1.8
- ALP (time 28 day): 700.6 IU/L
- ALT (time 28 day): 39.8 IU/L
- AST (time 28 day): 63.4 IU/L
- BUN (time 28 day): 23 mg/dL
- CRE (time 28 day): 0.7 mg/dL
- Ca (time 28 day): 10.5 mg/dL
- Cl (time 28 day): 106.4 meq/L
- DBIL (time 28 day): 0.022 mg/dL
- GLC (time 28 day): 192.6 mg/dL
- IP (time 28 day): 6.4 mg/dL
- K (time 28 day): 4.1 meq/L
- LDH (time 28 day): 106.2 IU/L
- Na (time 28 day): 140.8 meq/L
- PL (time 28 day): 133 mg/dL
- RALB (time 28 day): 4 g/dL
- TBIL (time 28 day): 0.2 mg/dL
- TC (time 28 day): 72 mg/dL
- TG (time 28 day): 43.6 mg/dL
- TP (time 28 day): 6.2 g/dL
- gamma-GTP (time 28 day): 1.6 IU/L
